# According to patent publication EP4332093A1, “SALT CONTAINING PIPERAZINE POLYCYCLIC DERIVATIVE, CRYSTAL FORM THEREOF, PREPARATION METHOD THEREFOR, AND USE THEREOF” (Shanghai Hansoh Biomedical Co., Ltd., priority 2021, dated 2022):
# Like-named read-outs stand apart in the source and are kept apart here.
# Legend:
# [1] = Solid stability experiment of crystal forms of salt (5 and 10 days); assay type: physicochemical
# Experimental: About 1 mg of different crystal forms of salt were taken and placed under the conditions of light 5000lx, high temperature 60°C, high humidity 92.5%RH, high temperature and high humidity 50°C 75%RH for 5 days and 10 days. The salt content was determined by HPLC and external standard method, and the change of relevant substances was calculated by chromatographic peak area normalization method.
# [2] = Pharmacokinetic assay in Balb/c mice (plasma and brain tissue); assay type: in vivo; settings: male, mouse, po, p.o. 5 mg/kg; for AUC(0-t): read-out: Area under curve AUC0-t; for Tmax: read-out: Peak time tmax; for Cmax: read-out: Plasma concentration Cmax
# Experimental: Balb/c mice were used as test animals. The pharmacokinetic behavior in mouse body (plasma and brain tissue) of the compounds of Examples of the present invention was studied at an oral administration dose of 5 mg/kg.
# Compounds of the Examples of the present invention, prepared by the applicant.
# Male Balb/c mice (12 mice per group), purchased from Shanghai Jiesijie Laboratory Animal Co., LTD, with Certificate No.: SCXK (Shanghai) 2013-0006 N0.311620400001794.
# The test compound was dissolved in 0.5% CMC-Na (1% Tween80) by sonication to formulate a clear solution or homogeneous suspension.
# After an overnight fast, male Balb/c mice (12 mice per group) were administered p.o. with the test compound at an administration dose of 5 mg/kg and an administration volume of 10 mL/kg.
# 0.2 mL of blood was taken from the heart of the mouse before administration and at 1, 2, 4, 8 and 24 hours after administration, and the mice were sacrificed with CO2. The samples were stored in EDTA-K2 tubes, and centrifuged for 6 minutes at 4°C, 6000 rpm to separate the plasma. The plasma samples were stored at -80°C. Whole brain tissue was taken out, weighed, placed in a 2 mL centrifuge tube, and stored at -80°C.
# • 1) 160 µL of acetonitrile was added to 40 µL of the plasma sample for precipitation, and then the mixture was centrifuged for 5 to 20 minutes at 3500 × g. • 2) 90 µL of acetonitrile containing internal standard (100 ng/mL) was added to 30 µL of the plasma and brain homogenate sample for precipitation, and then the mixture was centrifuged for 8 minutes at 13000 rpm. • 3) 70 µL of water was added to 70 µL of the treated supernatant and mixed by vortex for 10 minutes. 20 µL of the supernatant was taken to analyze the concentration of the test compound by LC/MS/MS. LC/MS/MS analytical instrument: AB Sciex API 4000 Qtrap.
# • Liquid chromatography condition: Shimadzu LC-20AD pump • Chromatographic column: Agilent ZORBAX XDB-C18 (50×2.1 mm, 3.5 µm); Mobile phase: Eluent A was 0.1% formic acid in water, and Eluent B was acetonitrile • Flow rate: 0.4 mL/min • Elution time: 0-4.0 minutes, the eluent is as follows:
# The main parameters of pharmacokinetics were calculated by WinNonlin 6.1. Table 17: Experimental results of pharmacokinetic assay in mice
# [3] = biological target: T1, 5-HT2A receptor (Homo sapiens, UniProt P28223); assay: Calcium ion mobility in cells stably expressing 5-HT2A receptors (Flp-In-CHO-5HT2A, FLIPR); assay type: cell-based; parameters: expressed in transfected cells; settings: Flp-In-CHO-5HT2A stable pool, 5HT stimulation
# T1 sequence (P28223 whole entry): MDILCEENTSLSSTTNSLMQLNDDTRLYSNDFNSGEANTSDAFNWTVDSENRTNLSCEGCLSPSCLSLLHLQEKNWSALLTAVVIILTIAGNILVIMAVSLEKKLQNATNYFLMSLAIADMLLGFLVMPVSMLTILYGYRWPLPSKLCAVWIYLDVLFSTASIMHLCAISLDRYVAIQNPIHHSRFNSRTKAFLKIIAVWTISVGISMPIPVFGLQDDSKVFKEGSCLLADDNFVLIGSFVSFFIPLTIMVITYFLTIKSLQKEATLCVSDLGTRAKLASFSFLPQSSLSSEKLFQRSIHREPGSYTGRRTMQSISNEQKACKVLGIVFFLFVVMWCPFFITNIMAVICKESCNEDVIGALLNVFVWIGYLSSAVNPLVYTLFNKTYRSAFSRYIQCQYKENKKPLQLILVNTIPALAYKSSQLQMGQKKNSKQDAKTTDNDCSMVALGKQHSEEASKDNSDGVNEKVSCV
# Experimental: Determination of the effect of the compounds of the present invention on calcium ion mobility in cells stably expressing 5-HT2A receptors
# To determine the inhibitory effect of the compounds on 5-HT2A receptor.
# • 1) Preparation of the buffer: 1 x HBSS, 20 mM HEPES, 2.5 mM probenecid (probenecid was 400 mM stock in 1 M NaOH), 0.1% BSA. Probenecid and BSA were added fresh on the day of the experiment. Experimental buffers include dye buffer and compound dilution buffer. • 2) Cell culture medium: Ham's F-12K + 10% fetal bovine serum + 600 µg/ml hygromycin B + 1* penicillin-streptomycin. Seeding medium: Ham's F-12K + 10% dialysis serum; Assay buffer: 1 x HBSS + 20 mM HEPES; Cell line: Flp-In-CHO-5HT2A stable pool. • 3) The cells were cultured in the complete medium at 37°C, 5% CO2 to 70%-90% confluency. The cells were digested with TrypLE, seeded to the 384-well assay plate at a density of 1 × 10^4 cells/well, and incubated for 16 to 24 hours (at least overnight). • 4) 20X Component A was thawed to room temperature, diluted to 2X working concentration (containing 5mM Probenecid) with the assay buffer, and placed at room temperature for later use. • 5) The cell culture plate was taken out and left to stand at room temperature for 10 min. […] 10 µl of diluted 5HT was add to each experimental well using FLIPR Tetra, and the values were read.
# The calcium signal values were determined by FLIPR. The calculated output for each sampling time point in the experiment was the ratio of the 340/510 nm wavelength signals to 380/510 nm wavelength signals. The maximum minus minimum calculation was derived from the ratio signal curve. The percent inhibition rate and ten-point concentration data were fitted to the parametric nonlinear logistic equation by using GraphPad prism to calculate the IC50 values of the compound.
# [4] = biological target: T2, D3 receptor (Homo sapiens, UniProt P35462); assay: cAMP content in cells stably expressing D3 receptors (CHO-D3, forskolin, HTRF); assay type: cell-based
# T2 construct: expressed in transfected cells
# T2 sequence (P35462 whole entry): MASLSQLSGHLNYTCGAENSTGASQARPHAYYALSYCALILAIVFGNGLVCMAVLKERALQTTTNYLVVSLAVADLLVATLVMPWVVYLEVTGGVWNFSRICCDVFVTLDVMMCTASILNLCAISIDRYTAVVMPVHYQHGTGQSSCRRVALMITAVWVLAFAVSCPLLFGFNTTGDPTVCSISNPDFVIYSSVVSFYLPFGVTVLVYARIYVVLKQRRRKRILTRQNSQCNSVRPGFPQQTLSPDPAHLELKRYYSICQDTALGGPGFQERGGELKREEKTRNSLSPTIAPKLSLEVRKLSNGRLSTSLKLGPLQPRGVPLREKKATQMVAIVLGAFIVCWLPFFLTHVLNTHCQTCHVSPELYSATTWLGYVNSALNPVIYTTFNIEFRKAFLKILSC
# Experimental: Determination of the effect of the compounds of the present invention on cAMP content in cells stably expressing D3 receptors
# To determine the activation effect of the compounds on D3 receptor.
# • 1. Preparation of the buffer: 1* HBSS + 20mM HEPES + 0.1% BSA + 500 µM IBMX. Complete medium: Ham's F12K + 10% fetal bovine serum +1* penicillin-streptomycin + 400 µg/mL G418. • 2. CHO-D3 cells were cultured in the complete medium at 37°C, 5% CO2. After TrypLE digestion, the cells were resuspended in the experimental buffer, and seeded into a 384-well cell culture plate at a seeding density of 8000 cells per well. • 3. The experimental buffer (1*HBSS, 0.1% BSA, 20 mM HEPES and 500 µM IBMX) was prepared. The compound was diluted with the buffer. 2.5 µL of the compound solution was added to each well, and the plate was incubated at 37°C for 10 minutes. The forskolin was diluted to 8 µM (8*) with the experimental buffer. 2.5 µL of the diluted 8* forskolin was added, and the plate was incubated at 37°C for 30 minutes. cAMP-d2 and Anti-cAMP-Eu^3+ were thawed, and diluted by 20-fold with the lysis buffer. 10 µL of cAMP-d2 was added to the experimental well, followed by the addition of 10 µL of Anti-cAMP-Eu^3+. The reaction plate was centrifuged at 200 g for 30 s at room temperature, and left to stand at 25°C for 1 h. Data was collected using Envision.
# [5] = biological target: T1, 5-HT2A receptor; assay: Radioligand binding assay, 5-HT2A receptor ([3H]-Ketanserin); parameters: purchased PerkinElmer; settings: Human 5-HT2A Receptor membrane, [3H]-Ketanserin 2 nM; read-out: 5HT-2A Binding IC50
# Experimental: Determination of the binding ability of the compounds of the
# present invention to 5-HT2A receptor
# The objective of this test example is to determine the affinity of the compounds for 5-HT2A receptor.
# Experimental buffer: 50 mM Tris-HCl pH 7.4, 4 mM CaCl2; washing liquor: 50 mM Tris-HCl pH 7.4, stored at 4°C; 0.5% PEI solution: 0.5 g PEI dissolved in 100 mL ddH2O, 4°C storage of spare.
# 5 µL of the test compounds (0.005 nM to 100 nM, 10 concentrations in total) and 100 µL of buffer were added to a 96-well assay plate. 1.5 µL of cell membrane and 300 µL of buffer were added to each well, and the plate was shaken at 600 rpm for 5 minutes. 100 µL of a mixed solution of buffer and [^3H]-Ketanserin (final concentration of 2 nM) was added to the reaction system per well, and the plate was shaken at 600 rpm for 5 minutes and incubated at 27°C for 30 min. The […]-96 GF/B filter plate pre-incubated with 0.5% PEI for 1 h was washed twice with the buffer (1 mL/well). The cell membrane suspension was added to the […]-96 GF/B filter plate, washed 4 times, and incubated at 55°C for 10 min. 40 µL of ULTIMA GOLD was added to each well, and liquid scintillation counting was carried out.
# (§1) The CPM (Counts per minute) values were determined by TopCount. […] The 10 concentrations of the compound were from 100 nM to 0.005 nM after 3-fold dilution of the reaction system. The percent inhibition rate and ten-point concentration data were fitted to the parametric nonlinear logistic equation by using GraphPad prism to calculate the IC50 values of the compound.
# [6] = biological target: T3, dopamine D3 receptor (Homo sapiens, UniProt P35462); assay: Radioligand binding assay, dopamine D3 receptor ([3H]-methylspiperone); settings: Human Dopamine D3 Receptor membrane, [3H]-methylspiperone 0.5 nM
# T3 construct: purchased PerkinElmer ES-173-M400UA
# T3 sequence (P35462 whole entry): as above
# Experimental: Determination of the binding ability of the compounds of the present invention to dopamine D3 receptor
# The objective of this test example is to determine the affinity of the compounds for dopamine D3 receptor.
# Experimental buffer: 50 mM Tris-HCl pH 7.4, 10 mm MgCl2; washing liquor: 50 mM Tris-HCl pH 7.4, stored at 4°C; 0.5% PEI solution: 0.5 g PEI dissolved in 100 mL ddH2O, 4°C storage of spare.
# 5 µL of the test compounds (0.005 nM to 100 nM, 10 concentrations in total) and 100 µL of buffer were added to a 96-well assay plate. 1 µL of cell membrane and 300 µL of buffer were added to each well, and the plate was shaken at 600 rpm for 5 minutes. 100 µL of a mixed solution of buffer and [^3H]-methylspiperone (final concentration of 0.5 nM) was added to the reaction system per well, and the plate was shaken at 600 rpm for 5 minutes and incubated at 27°C for 30 min. The UNIFII,TER-96 GF/B filter plate pre-incubated with 0.5% PEI for 1 h was washed twice with the buffer (1 mL/well). The cell membrane suspension was added to the […]-96 GF/B filter plate, washed 4 times, and incubated at 55°C for 10 min. 40 µL of ULTIMA GOLD was added to each well, and liquid scintillation counting was carried out.
# as §1
# [7] = High humidity (92.5% RH), 5 Days
# [8] = High humidity (92.5% RH), 10 Days
# [9] = High temperature (60°C), 5 Days
# [10] = High temperature (60°C), 10 Days
# [11] = High temperature and high humidity (50°C 75%RH), 5 Days
# [12] = High temperature and high humidity (50°C 75%RH), 10 Days
structure (smiles),measurement,setting,value
O=C(N[C@H]1C[C@H](CCN2CCN(c3cccc(Cl)c3Cl)CC2)C1)c1ncco1 [crystal form B of p-toluenesulfonate],crystal form stability (single impurity),[1]; light conditions (5000lx),single impurity increases significantly
same,crystal form stability,"[1]; other conditions (60°C, 92.5% RH, 50°C 75% RH)",stable
O=C(N[C@H]1C[C@H](CCN2CCN(c3cccc(Cl)c3Cl)CC2)C1)c1ncco1 [Crystal form A of hydrochl oride],Maximum single impurity increase%,[1]; [7],0.06%
same,Total impurity increase%,[1]; [7],0.06%
same,Maximum single impurity increase%,[1]; [8],<0.02%
same,Total impurity increase%,[1]; [8],<0.02%
same,Maximum single impurity increase%,[1]; [9],<0.02%
same,Total impurity increase%,[1]; [9],<0.02%
same,Maximum single impurity increase%,[1]; [10],<0.02%
same,Total impurity increase%,[1]; [10],0.03%
same,Maximum single impurity increase%,[1]; [11],<0.02%
same,Total impurity increase%,[1]; [11],<0.02%
same,Maximum single impurity increase%,[1]; [12],<0.02%
same,Total impurity increase%,[1]; [12],<0.02%
same,Maximum single impurity increase%,"[1]; Light (5000lx), 5 Days",<0.02%
same,Total impurity increase%,"[1]; Light (5000lx), 5 Days",<0.02%
same,Maximum single impurity increase%,"[1]; Light (5000lx), 10 Days",<0.02%
same,Total impurity increase%,"[1]; Light (5000lx), 10 Days",<0.02%
O=C(N[C@H]1C[C@H](CCN2CCN(c3cccc(Cl)c3Cl)CC2)C1)c1ncco1 [Crystal form B of p-toluene sulfonate],Maximum single impurity increase%,[1]; [7],<0.02%
same,Total impurity increase%,[1]; [7],<0.02%
same,Total impurity increase%,[1]; [10],<0.02%
same,Maximum single impurity increase%,"[1]; Light (5000lx), 5 Days",0.13%
same,Total impurity increase%,"[1]; Light (5000lx), 5 Days",0.03%
same,Maximum single impurity increase%,"[1]; Light (5000lx), 10 Days",0.13%
same,Total impurity increase%,"[1]; Light (5000lx), 10 Days",0.19%
"O=C(NC1CC(CCN2CCN(c3cccc(Cl)c3Cl)CC2)C1)c1nccs1 (centres unmarked) [Example 7, N-(3-(2-(4-(2,3-Dichlorophenyl)piperazin-1-yl)ethyl)cyclobutyl)thiazole-2-carboxamide]",AUC(0-t),[2]; Brain,2080 ng·h/mL
same,Tmax,[2]; Brain,60 min
same,Cmax,[2]; Brain,569 ng/mL
same,AUC(0-t),[2]; Plasma,503 ng·h/mL
same,AUC(0-inf),"[2]; Plasma, read-out: Area under curve AUC0-∞",541 ng·h/mL
same,MRT,"[2]; Plasma, read-out: Average residence time MRT",2.8 h
same,half-life,"[2]; Plasma, read-out: Half life t1/2 (converted)",126 min
same,Tmax,[2]; Plasma,30 min
same,Cmax,[2]; Plasma,254 ng/mL
same,IC50,[3],6.44 nM
same,EC50,[4],2.8 nM
"O=S(=O)(NC1CC(CCN2CCN(c3cccc(Cl)c3Cl)CC2)C1)C1CC1 (centres unmarked) [Example 11, N-(3-(2-(4-(2,3-Dichlorophenyl)piperazin-1-yl)ethyl)cyclobutyl)cyclopropanesulfon amide]",IC50,[5],44 nM
same,IC50,[6],0.62 nM
